Results taken from ChEMBL document CHEMBL5537137, “Design, synthesis and biological evaluation of biaryl amide derivatives against SARS-CoV-2 with dual-target mechanism” (Eur J Med Chem, 2024).

Experiments:
Human coronavirus OC43 [1] = assay: microbe, parasite or virus in culture; conditions: Betacoronavirus 1, VR-1558, NCI-H460, 72 h
Description: Antiviral activity against HCoV-OC43 VR-1558 infected in human NCI-H460 cells assessed as inhibition of viral growth incubated for 72 hrs by CCK-8 assay

[2] = Cytotoxicity against human NCI-H460 cells incubated for 72 hrs by CCK-8 assay
in vitro = conditions: human, NCI-H460 cells
Description: Selectivity index, ratio of CC50 for cytotoxicity against human NCI-H460 cells to EC50 for antiviral activity against HCoV-OC43 VR-1558 infected in human NCI-H460 cells

[3] = Cytotoxicity against human Huh7.5 cells
[4] = Cytotoxicity against human H9 cells
[5] = target: Replicase polyprotein 1ab (Severe acute respiratory syndrome coronavirus 2, UniProt P0DTD1)
Description: Binding affinity to CM5 sensor chip immobilized SARS-CoV-2 3CL protease assessed as dissociation constant by SPR analysis

Human coronavirus OC43 [6] = assay: microbe, parasite or virus in culture; conditions: Betacoronavirus 1, A549, 96 h
Description: Antiviral activity against HCoV-OC43 infected in human A549 cells assessed as inhibition of viral growth incubated for 4 days

SARS-CoV-2 = assay: microbe, parasite or virus in culture; conditions: Severe acute respiratory syndrome coronavirus 2, IC19/2020, Vero, 48 h
Description: Antiviral activity against SARS-CoV-2 IC19/2020 infected in Vero cells assessed as inhibition of viral growth incubated for 48 hrs by plaque assay

| Structure (SMILES) | EC50 (Human coronavirus OC43 [1]) | CC50 at 72 h [2] | selectivity ratio (in vitro) | CC50 [3] | CC50 [4] | Kd [5] | EC50 (Human coronavirus OC43 [6]) | EC50 (SARS-CoV-2) |
| --- | --- | --- | --- | --- | --- | --- | --- | --- |
| CN1CCN(Cc2ccc(NC(=O)c3ccc(OCCCCl)c(C(F)(F)F)c3)cc2C(F)(F)F)CC1 | 2.94 µM | 6.2 µM | 2 |  |  |  |  |  |
| CN1CCN(Cc2ccc(NC(=O)c3ccc(OCCCCl)c([N+](=O)[O-])c3)cc2C(F)(F)F)CC1 | 2.47 µM | 15 µM | 6.1 |  |  |  |  |  |
| CN1CCN(Cc2ccc(NC(=O)c3ccc(OCCCCl)c(F)c3)cc2C(F)(F)F)CC1 | 5.34 µM | 13.4 µM | 3 |  |  |  |  |  |
| CC(C)Oc1ccc(C(=O)Nc2ccc(CN3CCN(C)CC3)c(C(F)(F)F)c2)cc1[N+](=O)[O-] | 3.54 µM | 19.2 µM | 5.4 |  |  |  |  |  |
| CN(C)C1CN(Cc2ccc(NC(=O)c3ccc(OCCCl)c([N+](=O)[O-])c3)cc2C(F)(F)F)C1 | 2.97 µM | 19.2 µM | 6.5 | 6.47 µM |  |  |  |  |
| CN(C)C1CN(Cc2ccc(NC(=O)c3ccc(OCCCCl)c([N+](=O)[O-])c3)cc2C(F)(F)F)C1 | 8.64 µM | 49.8 µM | 6 |  |  |  |  |  |
| CN1CCN(Cc2ccc(NC(=O)c3ccc(OCCCCl)c([N+](=O)[O-])c3)cn2)CC1 | 19.2 µM | 43.7 µM | 2.3 |  |  |  |  |  |
| CCC(=O)Nc1cc(C(=O)Nc2ccc(CN3CCN(C)CC3)c(C(F)(F)F)c2)ccc1OCCCCl | 5.74 µM | 27.1 µM | 4.73 |  |  |  |  |  |
| CN1CCN(Cc2ccc(NC(=O)c3ccc(OCCCl)c([N+](=O)[O-])c3)cc2C(F)(F)F)CC1 | 3.73 µM | 13 µM | 3.5 |  |  |  |  |  |
| O=C(Nc1ccc(CN2CC(C(=O)O)C2)c(C(F)(F)F)c1)c1ccc(OCCCCl)c([N+](=O)[O-])c1 | > 66.7 µM | > 200 µM |  |  |  |  |  |  |
| CN(C)C1CCN(Cc2ccc(NC(=O)c3ccc(OCCCCl)c([N+](=O)[O-])c3)cc2C(F)(F)F)C1 (stereo unspecified) | 9.76 µM | 28.2 µM | 2.9 |  |  |  |  |  |
| CC1CN(Cc2ccc(NC(=O)c3ccc(OCCCCl)c([N+](=O)[O-])c3)cc2C(F)(F)F)CC(C)O1 (stereo unspecified) | 2.49 µM | 4.69 µM | 2 |  |  |  |  |  |
| CN(C)C1CCN(Cc2ccc(NC(=O)c3ccc(OCCCCl)c([N+](=O)[O-])c3)cc2C(F)(F)F)CC1 | 3.93 µM | 18.5 µM | 4.7 |  |  |  |  |  |
| CN1CCN(Cc2ccc(NC(=O)c3ccc(OCCCCl)c([N+](=O)[O-])c3)cc2C#N)CC1 | 12.1 µM | 136 µM | 11.2 |  |  |  |  |  |
| CN1CCN(Cc2ccc(NC(=O)c3ccc(OCCCCl)c(S(N)(=O)=O)c3)cc2C(F)(F)F)CC1 | 4.11 µM | 40.4 µM | 9.8 |  |  |  |  |  |
| COc1ccc(C(=O)Oc2cc(OC)c(OC)c(OC)c2)cc1NC(=O)C(C)Br (stereo unspecified) |  |  |  |  | 3.64 µM |  |  |  |
| CN1CCN(CCCNC(=O)C2CN(Cc3ccc(NC(=O)c4ccc(OCCCCl)c([N+](=O)[O-])c4)cc3C(F)(F)F)C2)CC1 | 18.6 µM | 59.1 µM | 3.2 |  |  |  |  |  |
| CN(C)C1CCN(Cc2ccc(NC(=O)c3ccc(OCC4CC4)c([N+](=O)[O-])c3)cc2C(F)(F)F)CC1 | 1.24 µM | 14.2 µM | 11 |  |  |  |  |  |
| CN(C)C1CC(Oc2ccc(NC(=O)c3ccc(O)c([N+](=O)[O-])c3)cc2C(F)(F)F)C1 (stereo unspecified) | 27.2 µM | 186 µM | 7 |  |  |  |  |  |
| CN1CCN(Cc2ccc(NC(=O)c3ccc(OCCF)c([N+](=O)[O-])c3)cc2C(F)(F)F)CC1 | 2.64 µM | 24.5 µM | 9 |  |  |  |  |  |
| CN(C)C1CC(Oc2ccc(NC(=O)c3ccc(OCCC(F)(F)F)c([N+](=O)[O-])c3)cc2C(F)(F)F)C1 (stereo unspecified) | 2.01 µM | 31.3 µM | 16 |  |  |  |  |  |
| COc1ccc(C(=O)Nc2ccc(OC3CC(N(C)C)C3)c(C(F)(F)F)c2)cc1[N+](=O)[O-] (stereo unspecified) | 19.5 µM | 139 µM | 7 |  |  |  |  |  |
| CN1CCN(Cc2ccc(NC(=O)c3ccc(OCCCCl)c(NS(C)(=O)=O)c3)cc2C(F)(F)F)CC1 | 12.8 µM | 38.5 µM | 3 |  |  |  |  |  |
| CN(C)C1CN(Cc2ccc(NC(=O)c3ccc(OCc4cc(C(F)(F)F)cc(C(F)(F)F)c4)c([N+](=O)[O-])c3)cc2C(F)(F)F)C1 | > 3.13 µM | 5.07 µM | < 1.7 |  |  |  |  |  |
| CN1CCN(Cc2ccc(NC(=O)c3ccc(F)c(C(F)(F)F)c3)cc2C(F)(F)F)CC1 | 4.15 µM | 14.5 µM | 3 |  |  |  |  |  |
| CN(C)C1CN(Cc2ccc(NC(=O)c3ccc(OCC(F)F)c([N+](=O)[O-])c3)cc2C(F)(F)F)C1 | 4.51 µM | 34.1 µM | 8 |  |  |  |  |  |

| Structure (SMILES) | EC50 (Human coronavirus OC43 [1]) | CC50 at 72 h [2] | selectivity ratio (in vitro) | CC50 [3] | CC50 [4] | Kd [5] | EC50 (Human coronavirus OC43 [6]) | EC50 (SARS-CoV-2) |
| --- | --- | --- | --- | --- | --- | --- | --- | --- |
| CN1CCN(Cc2ccc(NC(=O)c3ccc(OCCCCl)c(S(=O)(=O)O)c3)cc2C(F)(F)F)CC1 | 36.8 µM | > 200 µM | 7 |  |  |  |  |  |
| CN1CCN(Cc2ccc(NC(=O)c3ccc(OO)c([N+](=O)[O-])c3)cc2C(F)(F)F)CC1 | 26.2 µM | > 200 µM | > 8 |  |  |  |  |  |
| CN(C)C1CC(Oc2ccc(NC(=O)c3ccc(OCCCl)c([N+](=O)[O-])c3)cc2C(F)(F)F)C1 (stereo unspecified) | 1.09 µM | 9.94 µM | 9.1 |  |  |  |  |  |
| CN(C)C1CN(Cc2ccc(NC(=O)c3ccc(OCCF)c([N+](=O)[O-])c3)cc2C(F)(F)F)C1 | 2.93 µM | 75.2 µM | 25.7 |  |  |  |  |  |
| CN(C)C1CN(Cc2ccc(NC(=O)c3ccc(OCC4CC4)c([N+](=O)[O-])c3)cc2C(F)(F)F)C1 | 1.01 µM | 14.6 µM | 14.5 |  |  |  |  |  |
| COc1ccc(C(=O)Nc2ccc(CN3CCN(C)CC3)c(C(F)(F)F)c2)cc1S(N)(=O)=O | 19.9 µM | 123 µM | 6.17 |  |  |  |  |  |
| CN(C)C1CC(Oc2ccc(NC(=O)c3ccc(OCC(F)F)c([N+](=O)[O-])c3)cc2C(F)(F)F)C1 (stereo unspecified) | 2.58 µM | 34.3 µM | 13 |  |  |  |  |  |
| Cc1ccc(NC(=O)c2ccc(OCCCCl)c([N+](=O)[O-])c2)cc1C(F)(F)F | 3.83 µM | 82.4 µM | 21 |  |  |  |  |  |
| CN(C)C1CC(Oc2ccc(NC(=O)c3ccc(OCCF)c([N+](=O)[O-])c3)cc2C(F)(F)F)C1 (stereo unspecified) | 1.79 µM | 27.1 µM | 15 |  |  |  |  |  |
| COc1ccc(C(=O)Nc2ccc(CN3CC(N(C)C)C3)c(C(F)(F)F)c2)cc1[N+](=O)[O-] | 12.1 µM | > 200 µM | > 17 |  |  |  |  |  |
| CCC(=O)Nc1cc(C(=O)Nc2ccc(CN3CC(N(C)C)C3)c(C(F)(F)F)c2)ccc1OCCCCl | 22.2 µM | 96.2 µM | 4.3 |  |  |  |  |  |
| CN(C)C1CC(Oc2ccc(NC(=O)c3ccc(OCc4cc(C(F)(F)F)cc(C(F)(F)F)c4)c([N+](=O)[O-])c3)cc2C(F)(F)F)C1 (stereo unspecified) | 11.7 µM | 17 µM | 1 |  |  |  |  |  |
| CC1CC(C)CN(CCCNC(=O)C2CN(Cc3ccc(NC(=O)c4ccc(OCCCCl)c([N+](=O)[O-])c4)cc3C(F)(F)F)C2)C1 (stereo unspecified) | 3.18 µM | 14.9 µM | 4.7 |  |  |  |  |  |
| COc1ccc(C(=O)Nc2ccc(OC3CC(N(C)C)C3)cc2C(F)(F)F)cc1[N+](=O)[O-] (stereo unspecified) | 28.6 µM | 99.5 µM | 3 |  |  |  |  |  |
| C=CCOc1ccc(C(=O)Nc2ccc(CN3CC(N(C)C)C3)c(C(F)(F)F)c2)cc1[N+](=O)[O-] | 7.61 µM | 28.1 µM | 4 |  |  |  |  |  |
| CN1CCN(Cc2ccc(NC(=O)c3ccc(OCCCF)c([N+](=O)[O-])c3)cc2C(F)(F)F)CC1 | 2.45 µM | 17.8 µM | 7 |  |  |  |  |  |
| CCOc1ccc(C(=O)Nc2ccc(CN3CC(N(C)C)C3)c(C(F)(F)F)c2)cc1[N+](=O)[O-] | 1.85 µM | > 200 µM | > 108 |  |  | 17.1 µM |  |  |
| CN(C)C1CN(Cc2ccc(NC(=O)c3ccc(OCC45CC6CC(CC(C6)C4)C5)c([N+](=O)[O-])c3)cc2C(F)(F)F)C1 | > 3.13 µM | 4.63 µM | < 1.7 |  |  |  |  |  |
| COc1ccc(C(=O)Nc2ccc(CN3CCN(C)CC3)c(C(F)(F)F)c2)cc1[N+](=O)[O-] | 2.81 µM | 30.4 µM | 10.8 |  |  |  |  |  |
| CCC(=O)Nc1cc(C(=O)Nc2ccc(CN3CCN(C)CC3)nc2)ccc1OCCCCl | 41.5 µM | 82.7 µM | 2 |  |  |  |  |  |
| CN(C)C1CC(Oc2ccc(NC(=O)c3ccc(OCC4CC4)c([N+](=O)[O-])c3)cc2C(F)(F)F)C1 (stereo unspecified) | 1.24 µM | 8.51 µM | 7 |  |  |  |  |  |
| CCOc1ccc(C(=O)Nc2ccc(OC3CC(N(C)C)C3)c(C(F)(F)F)c2)cc1[N+](=O)[O-] (stereo unspecified) | 3.09 µM | 55.4 µM | 17.9 |  |  |  |  |  |
| CN(C)C1CC(Oc2ccc(NC(=O)c3ccc(OCC45CC6CC(CC(C6)C4)C5)c([N+](=O)[O-])c3)cc2C(F)(F)F)C1 (stereo unspecified) | > 1.56 µM | 2.51 µM | < 1.7 |  |  |  |  |  |
| Cc1ccc(NC(=O)c2ccc(CN3CCN(C)CC3)cc2)cc1Nc1nc(-c2cccnc2)cs1 [MASITINIB] |  |  |  |  |  |  | 2.1 µM |  |
| CC(C)C(=O)OC[C@H]1O[C@@H](n2ccc(NO)nc2=O)[C@H](O)[C@@H]1O [MOLNUPIRAVIR] | 0.18 µM | 18.3 µM | 102 |  |  |  |  |  |
| O=C(Nc1ccc([N+](=O)[O-])cc1Cl)c1cc(Cl)ccc1O [NICLOSAMIDE] |  |  |  |  |  |  |  | 0.4 µM |
